The values below come from US20060035925A1, “SUBSTITUTED 4H-CHROMENES AND ANALOGS AS ACTIVATORS OF CASPASES AND INDUCERS OF APOPTOSIS AND THE USE THEREOF” (Cytovia, Inc., priority 1999, published 2006).

The test system of experiment [1] is Human breast cancer cell line ZR-75-1. Nature of the experiment: Caspase cascade activation assay (N-(Ac-DEVD)-N'-ethoxycarbonyl-R110 fluorogenic substrate) in ZR-75-1 cells. Format: cell-based. The note with it: ZR-75-1 cells; for EC50: Homo sapiens, ZR-75-1, 24 h, 24 h incubation, sigmoidal dose-response, read-out: Caspase potency EC50 (nM) ZR-75-1; for Caspase activity (Ratio) ZR-75-1: 24 h incubation with compound, ratio of net RFU (T=3 h) of test compound to control. The procedure:
(§1) Human breast cancer cell lines T-47D and ZR-75-1 were grown according to media component mixtures designated by American Type Culture Collection +10% FCS (Invitrogen Corporation), in a 5% CO2-95% humidity incubator at 37° C. T-47D and ZR-75-1 cells were maintained at a cell density between 30 and 80% confluency at a cell density of 0.1 to 0.6×10^6 cells/ml. Cells were harvested at 600×g and resuspended at 0.65×10^6 cells/mL into appropriate media +10% FCS. An aliquot of 45 μl of cells was added to a well of a 96-well microtiter plate containing 5 μl of a 10% DMSO in RPMI-1640 media solution containing 0.16 to 10 μM of 2-amino-3-cyano-4-(3-bromo-4,5-dimethoxyphenyl)-4H-indolo[7,6-b]pyran (Example 42) or other test compound (0.016 to 1 μM final). An aliquot of 45 μl of cells was added to a well of a 96-well microtiter plate containing 5 μl of a 10% DMSO in RPMI-1640 media solution without test compound as the control sample. The samples were mixed by agitation and then incubated at 37° C. for 24 h in a 5% CO2-95% humidity incubator. After incubation, the samples were removed from the incubator and 50 μl of a solution containing 20 μM of N-(Ac-DEVD)-N′-ethoxycarbonyl-R110 (SEQ ID NO:1) fluorogenic substrate (Cytovia, Inc.; WO99/18856), 20% sucrose (Sigma), 20 mM DTT (Sigma), 200 mM NaCl (Sigma), 40 mM Na PIPES buffer pH 7.2 (Sigma), and 500 μg/ml lysolecithin (Calbiochem) was added. The samples were mixed by agitation and incubated at room temperature. Using a fluorescent plate reader (Model 1420 Wallac Instruments), an initial reading (T=0) was made approximately 1-2 min after addition of the substrate solution, employing excitation at 485 nm and emission at 530 nm, to determine the background fluorescence of the control sample. After the 3 h incubation, the samples were read for fluorescence as above (T=3 h).
(§2) The Relative Fluorescence Unit values (RFU) were used to calculate the sample readings as follows: RFU(T=3h)−Control RFU(T=0)=Net RFU(T=3h)
(§3) The activity of caspase cascade activation was determined by the ratio of the net RFU value for 2-amino-3-cyano-4-(3-bromo-4,5-dimethoxyphenyl)-4H-indolo[7,6-b]pyran or other test compound to that of control samples. The EC50 (nM) was determined by a sigmoidal dose-response calculation (Prism 2.0, GraphPad Software Inc.).

For experiment [2], the system named is Human breast cancer cell line T-47D. Briefly: Caspase cascade activation assay (N-(Ac-DEVD)-N'-ethoxycarbonyl-R110 fluorogenic substrate) in T-47D cells. Format: cell-based. The note with it: for Caspase activity (Ratio) T-47D: 24 h incubation with compound, ratio of net RFU (T=3 h) of test compound to control; for EC50: Homo sapiens, T47D, 24 h, 24 h incubation, sigmoidal dose-response, read-out: Caspase potency EC50 (nM) T-47D. The procedure:
as §1, §2, §3

As usually defined, the EC50 is the concentration needed to bring the measured effect to its halfway point. In the case of `COc1ccc2c(c1)OC(N)=C(C#N)C2c1cccc(F)c1` (centres unmarked) [Example 2N, 2-Amino-3-cyano-7-methoxy-4-(3-fluorophenyl)-4H-chromene], in experiment [1], the EC50 came to 47 nM and the “Caspase activity (Ratio) ZR-75-1” value was found to be 6.8. For the same compound, in experiment [2], the “Caspase activity (Ratio) T-47D” value is listed as 4.2 and the 50% effective concentration (EC50) was 57 nM.

As to `N#CC1=C(N)Oc2cc(N)ccc2C1c1cc(F)cc(F)c1` (centres unmarked) [Example 2O, 2-Amino-3-cyano-7-amino-4-(3,5-difluorophenyl)-4H-chromene], in experiment [1], the EC50 was 193 nM and the “Caspase activity (Ratio) ZR-75-1” value came out at 7.1. Further, in experiment [2], the “Caspase activity (Ratio) T-47D” value is on record as 6.4 and the EC50 turned out to be 323 nM.

Take `COc1ccc2c(c1)OC(N)=C(C#N)C2c1cc(OC)c(OC)c(OC)c1` (centres unmarked) [Example 3, 2-Amino-3-cyano-7-methoxy-4-(3,4,5-trimethoxyphenyl)-4H-chromene]: in experiment [1], the EC50 was determined as 16 nM and the “Caspase activity (Ratio) ZR-75-1” value came out at 4.5. Further, in experiment [2], the “Caspase activity (Ratio) T-47D” value turned out to be 8.4 and the EC50 came to 29 nM.

Regarding `COc1cccc(C2C(C#N)=C(N)Oc3cc(OC)ccc32)c1` (centres unmarked) [Example 4, 2-Amino-3-cyano-7-methoxy-4-(3-methoxyphenyl)-4H-chromene], in experiment [1], the EC50 was determined as 33 nM and the “Caspase activity (Ratio) ZR-75-1” value is listed as 5.6. In addition, in experiment [2], the “Caspase activity (Ratio) T-47D” value turned out to be 8.1 and the half-maximal effective concentration (EC50) was 37 nM.

For `COc1ccc2c(c1)OC(N)=C(C#N)C2c1cccc(C#N)c1` (centres unmarked) [Example 5, 2-Amino-3-cyano-7-methoxy-4-(3-cyanophenyl)-4H-chromene], in experiment [1], the EC50 worked out at 46 nM and the “Caspase activity (Ratio) ZR-75-1” value worked out at 7.1. Also, in experiment [2], the “Caspase activity (Ratio) T-47D” value was 6.9 and the EC50 stood at 37 nM.

As to `COc1ccc2c(c1)OC(N)=C(C#N)C2c1cccc(Br)c1` (centres unmarked) [Example 6, 2-Amino-3-cyano-7-methoxy-4-(3-bromophenyl)-4H-chromene], in experiment [1], the EC50 was found to be 30 nM and the “Caspase activity (Ratio) ZR-75-1” value was determined as 12.8. For the same compound, in experiment [2], the “Caspase activity (Ratio) T-47D” value is given as 6.8 and the EC50 was 54 nM.

In the case of `CCNc1ccc2c(c1)OC(N)=C(C#N)C2c1cccc(Br)c1` (centres unmarked) [Example 7, 2-Amino-3-cyano-7-ethylamino-4-(3-bromophenyl)-4H-chromene], in experiment [1], the EC50 stood at 53 nM and the “Caspase activity (Ratio) ZR-75-1” value is recorded as 10.7. Besides, in experiment [2], the “Caspase activity (Ratio) T-47D” value worked out at 5.4 and the EC50 is 108 nM.

Take `CCNc1ccc2c(c1)OC(N)=C(C#N)C2c1cccc(Cl)c1` (centres unmarked) [Example 8, 2-Amino-3-cyano-7-ethylamino-4-(3-chlorophenyl)-4H-chromene]: in experiment [1], the EC50 came out at 62 nM and the “Caspase activity (Ratio) ZR-75-1” value came out at 10.1. Moreover, in experiment [2], the “Caspase activity (Ratio) T-47D” value was 8.5 and the EC50 stood at 126 nM.

Take `CCNc1ccc2c(c1)OC(N)=C(C#N)C2c1cccc([N+](=O)[O-])c1` (centres unmarked) [Example 9, 2-Amino-3-cyano-7-ethylamino-4-(3-nitrophenyl)-4H-chromene]: in experiment [1], the concentration for a half-maximal effect (EC50) is 50 nM and the “Caspase activity (Ratio) ZR-75-1” value amounted to 12.8. Moreover, in experiment [2], the “Caspase activity (Ratio) T-47D” value is given as 7.6 and the EC50 stood at 116 nM.

On to `COc1ccc2c(c1)OC(N)=C(C#N)C2c1cccc(Cl)c1` (centres unmarked) [Example 10, 2-Amino-3-cyano-7-methoxy-4-(3-chlorophenyl)-4H-chromene], for which, in experiment [1], the EC50 is 36 nM and the “Caspase activity (Ratio) ZR-75-1” value is recorded as 9.0. Also, in experiment [2], the “Caspase activity (Ratio) T-47D” value came out at 6.1 and the EC50 stood at 48 nM.

For `COc1ccc2c(c1)OC(N)=C(C#N)C2c1cccc([N+](=O)[O-])c1` (centres unmarked) [Example 11, 2-Amino-3-cyano-7-methoxy-4-(3-nitrophenyl)-4H-chromene], in experiment [1], the EC50 came out at 28 nM and the “Caspase activity (Ratio) ZR-75-1” value was determined as 6.6. In addition, in experiment [2], the “Caspase activity (Ratio) T-47D” value was found to be 4.5 and the EC50 was determined as 45 nM.

In the case of `COc1cc(OC)cc(C2C(C#N)=C(N)Oc3cc(OC)ccc32)c1` (centres unmarked) [Example 12, 2-Amino-3-cyano-7-methoxy-4-(3,5-dimethoxyphenyl)-4H-chromene], in experiment [1], the EC50 turned out to be 9 nM and the “Caspase activity (Ratio) ZR-75-1” value is 6.7. In experiment [2], the “Caspase activity (Ratio) T-47D” value came to 6.1 and the EC50 was 14 nM.

Turning to `CCNc1ccc2c(c1)OC(N)=C(C#N)C2c1cc(OC)c(OC)c(OC)c1` (centres unmarked) [Example 13, 2-Amino-3-cyano-7-ethylamino-4-(3,4,5-trimethoxyphenyl)-4H-chromene], in experiment [1], the EC50 amounted to 14 nM and the “Caspase activity (Ratio) ZR-75-1” value is recorded as 7.0. In addition, in experiment [2], the “Caspase activity (Ratio) T-47D” value is listed as 4.4 and the EC50 worked out at 25 nM.

Take `CCNc1ccc2c(c1)OC(N)=C(C#N)C2c1cc(OC)cc(OC)c1` (centres unmarked) [Example 14, 2-Amino-3-cyano-7-ethylamino-4-(3,5-dimethoxyphenyl)-4H-chromene]: in experiment [1], the EC50 is 10 nM and the “Caspase activity (Ratio) ZR-75-1” value came out at 7.7. Also, in experiment [2], the “Caspase activity (Ratio) T-47D” value was found to be 7 and the EC50 is 10 nM.

As for `CCNc1ccc2c(c1)OC(N)=C(C#N)C2c1cccc(OC)c1` (centres unmarked) [Example 15, 2-Amino-3-cyano-7-ethylamino-4-(3-methoxyphenyl)-4H-chromene], in experiment [1], the EC50 was found to be 4 nM and the “Caspase activity (Ratio) ZR-75-1” value was found to be 6.3. Besides, in experiment [2], the “Caspase activity (Ratio) T-47D” value was found to be 5.9 and the EC50 stood at 7 nM.

Consider `CCNc1ccc2c(c1)OC(N)=C(C#N)C2c1cccc(C#N)c1` (centres unmarked) [Example 16, 2-Amino-3-cyano-7-ethylamino-4-(3-cyanophenyl)-4H-chromene], for which, in experiment [1], the EC50 turned out to be 6 nM and the “Caspase activity (Ratio) ZR-75-1” value is on record as 6.7. Also, in experiment [2], the “Caspase activity (Ratio) T-47D” value is listed as 7 and the EC50 is 11 nM.

For `COc1ccc2c(c1)OC(N)=C(C#N)C2c1cccnc1` (centres unmarked) [Example 17, 2-Amino-3-cyano-7-methoxy-4-(3-pyridyl)-4H-chromene], in experiment [1], the EC50 is 147 nM and the “Caspase activity (Ratio) ZR-75-1” value turned out to be 8.2. Further, in experiment [2], the “Caspase activity (Ratio) T-47D” value came out at 5.9 and the EC50 was determined as 254 nM.

Regarding `N#CC1=C(N)OC2C3=CC=NC3=CC=C2C1c1cccnc1` (centres unmarked) [Example 18, 2-Amino-3-cyano-4-(3-pyridyl)-4H-indolo[4,5-b]pyran], in experiment [1], the EC50 came out at 38 nM and the “Caspase activity (Ratio) ZR-75-1” value was 8.8. Further, in experiment [2], the “Caspase activity (Ratio) T-47D” value was 9.0 and the EC50 was 56 nM.

As to `N#CC1=C(N)Oc2cc(N)ccc2C1c1cccc(Br)c1` (centres unmarked) [Example 19, 2,7-Diamino-3-cyano-4-(3-bromophenyl)-4H-chromene], in experiment [1], the EC50 stood at 206 nM and the “Caspase activity (Ratio) ZR-75-1” value is on record as 9.2. In addition, in experiment [2], the “Caspase activity (Ratio) T-47D” value was 5.9 and the EC50 came to 274 nM.

`N#CC1=C(N)Oc2cc(N)ccc2C1c1cccc(C#N)c1` (centres unmarked) [Example 20, 2,7-Diamino-3-cyano-4-(3-cyanophenyl)-4H-chromene]: in experiment [1], the EC50 turned out to be 58 nM and the “Caspase activity (Ratio) ZR-75-1” value came out at 5.2. In experiment [2], the “Caspase activity (Ratio) T-47D” value is 4.0 and the EC50 came to 120 nM.

Take `COc1cccc(C2C(C#N)=C(N)Oc3cc(N)ccc32)c1` (centres unmarked) [Example 21, 2,7-Diamino-3-cyano-4-(3-methoxyphenyl)-4H-chromene]: in experiment [1], the EC50 was 562 nM and the “Caspase activity (Ratio) ZR-75-1” value was 9.2. For the same compound, in experiment [2], the “Caspase activity (Ratio) T-47D” value is on record as 6.0 and the EC50 was 697 nM.

As to `N#CC1=C(N)Oc2cc(N)ccc2C1c1cccc(Cl)c1` (centres unmarked) [Example 22, 2,7-Diamino-3-cyano-4-(3-chlorophenyl)-4H-chromene], in experiment [1], the EC50 was determined as 2480 nM and the “Caspase activity (Ratio) ZR-75-1” value came out at 8.0. Further, in experiment [2], the “Caspase activity (Ratio) T-47D” value was determined as 5.8 and the EC50 is 4800 nM.

As to `Cc1cccc(C2C(C#N)=C(N)Oc3cc(N)ccc32)c1` (centres unmarked) [Example 23, 2,7-Diamino-3-cyano-4-(3-methylphenyl)-4H-chromene], in experiment [1], the EC50 is 102 nM and the “Caspase activity (Ratio) ZR-75-1” value amounted to 5.2. In experiment [2], the “Caspase activity (Ratio) T-47D” value is listed as 4.6 and the EC50 was determined as 146 nM.
